“And” between values parts separate entries of the source, which are not always exact repeats. Equal entries are not always repeated.
Key:
[1] = tested on: MDA-MB-468 breast cancer cells; test: Cytotoxicity test (CCK-8); type: cell-based; conditions: Homo sapiens, MDA-MB-468, 48 h, CCK-8, 48 h; read-out: IC50 against MDA-MB-468 breast cancer cells
In short: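 Cells seeded at 12,000/well in L15 for 24 h, then exposed 48 h to compounds at 0.41-100.00 µM (DMSO <0.4%). Viability by 10% CCK-8, 2 h at 37 °C, absorbance 450 nm, expressed as percent of control.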

OBX C57BL/6J mice = test: Olfactory bulbectomy (OBX) model, open field test; type: in vivo; conditions: 30 mg kg−1, within 1 h
Text: Male C57BL/6J mice (8–12 weeks old) were anesthetized by intraperitoneal injection of tiletamine‐zolazepam‐xylazine. Following confirmation of anesthesia, a midline scalp incision was made to expose the skull, and the bregma was identified as the anatomical reference point. Using a stereotaxic frame (Stoelting), bilateral olfactory bulbs (4 mm anterior to the bregma) were aspirated through a 1‐mm burr hole drilled with a dental drill. Hemostatic sponges were applied to the burr holes, and the incision was closed with 5‐0 silk sutures. The sham‐operated controls underwent identical procedures without bulb aspiration. Prophylactic antibiotic therapy (25% ampicillin, […], i.p.) was administered daily for three consecutive days post‐surgery. The animals were monitored during a 14‐day recovery period prior to behavioral assessments. After euthanasia, successful bulbectomy was verified by gross anatomical inspection, and habenular tissues were dissected on ice for subsequent molecular analyses.
This test was used to assess anxiety‐related behaviors in the mice. C57BL/6J mice were individually habituated to a 40 × 40 × 40 cm^3 open field arena under dim light for […]. Locomotor activity during the final 5 min was digitally recorded (30 fps) and analyzed using Tracking Master (Future Life Science (Shanghai) Co., Ltd., Shanghai, China). […]

5-HT2B receptor = target: T1, 5-HT2B receptor (Homo sapiens, UniProt P41595); test: 5-HT2B functional assay (Fluo-4 calcium, FDSS); type: cell-based
T1 construct: expressed in transfected cells
T1 sequence (P41595 whole entry): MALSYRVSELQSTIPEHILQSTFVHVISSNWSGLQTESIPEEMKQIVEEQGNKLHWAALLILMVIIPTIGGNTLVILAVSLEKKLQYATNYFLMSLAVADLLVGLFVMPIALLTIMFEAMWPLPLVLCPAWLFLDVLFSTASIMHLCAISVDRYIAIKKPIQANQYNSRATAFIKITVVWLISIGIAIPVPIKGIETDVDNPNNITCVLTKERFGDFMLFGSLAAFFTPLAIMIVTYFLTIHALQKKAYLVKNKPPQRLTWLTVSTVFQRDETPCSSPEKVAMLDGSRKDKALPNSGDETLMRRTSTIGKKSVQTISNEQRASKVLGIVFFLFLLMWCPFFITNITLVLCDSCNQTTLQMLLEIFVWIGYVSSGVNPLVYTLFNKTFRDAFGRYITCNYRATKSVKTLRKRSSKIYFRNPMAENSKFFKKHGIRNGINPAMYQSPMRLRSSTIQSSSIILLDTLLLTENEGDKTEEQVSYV
Method: Cells with inducible expression of target receptor were cultured in 175‐cm^2 flasks until ≈80% confluence, washed once with phosphate‐buffered saline (PBS), and dissociated using 0.25% trypsin–EDTA. After neutralization with culture medium and centrifugation (800 rpm, 3 min), the cells were resuspended, counted, and seeded onto poly‐D‐lysine‐coated 96‐well black plates at a density of 4 × 10^4 cells/well. Expression of the target receptor was induced with 1 µg mL^−1 doxycycline. After 30 min at room temperature, the plates were incubated at 37 °C, 5% CO2 for 18−24 h until reaching ≈90% confluence. The medium was replaced with Ca^2⁺‐free extracellular buffer, washed once, and incubated with Fluo‐4 AM for 60 min at 37 °C in the dark. After washing twice with extracellular buffer, extracellular buffer was added (80 µL/well), and the cells were incubated for an additional 20 min at room temperature before fluorescence recording. Real‐time fluorescence changes were recorded using an FDSS/µCell system at 480 nm excitation and 540 nm emission with a sampling rate of 1 Hz. After a 10‐s baseline, the test compounds were added (20 µL/well), and fluorescence was recorded for 180 s. Subsequently, […] was added (20 µL/well), and the signals were monitored for a total of 360 s.
The agonistic effect (%) of compounds was calculated as follows: (1) Agonist%=Rcompound−Rcontrol/Rcontrol×100% where R control is the maximal fluorescence ratio after the addition of 0.5% DMSO and R compoundis the ratio obtained after compound treatment. Fluorescence response curves and EC50 values were used to evaluate the agonistic potency. The extracellular (Ca^2+‐free) buffer contained (in mM): 140 NaCl, 5 KCl, 1 MgCl2, 10 glucose, 10 HEPES, 2 probenecid; pH adjusted to 7.4 with NaOH.

Kir4.1 T162A = target: T2, Kir4.1 T162A (Homo sapiens, UniProt P78508, T162A); test: Whole-cell patch clamp, Kir4.1 point mutant T162A; type: cell-based; conditions: JX3212 3 µM (Fig 2D)
T2 construct: expressed in transfected cells; host or cells: CHO-K1
T2 sequence (P78508 whole entry T162A): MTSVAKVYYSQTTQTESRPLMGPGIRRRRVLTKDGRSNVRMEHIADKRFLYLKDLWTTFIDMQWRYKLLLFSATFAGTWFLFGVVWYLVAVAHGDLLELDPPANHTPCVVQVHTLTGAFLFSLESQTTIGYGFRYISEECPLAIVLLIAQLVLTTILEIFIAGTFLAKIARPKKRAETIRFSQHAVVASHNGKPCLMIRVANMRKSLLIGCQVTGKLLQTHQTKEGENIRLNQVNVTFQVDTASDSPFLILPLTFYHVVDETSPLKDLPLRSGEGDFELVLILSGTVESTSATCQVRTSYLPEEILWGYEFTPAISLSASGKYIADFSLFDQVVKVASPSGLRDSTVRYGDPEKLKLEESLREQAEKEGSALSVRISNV
Method: Plasmids encoding WT human potassium channels Kir1.1, Kir2.1, Kir2.2, Kir4.1, and Kir4.2 were obtained from the Beijing Genomics Institute. All point mutations were constructed using the QuickChange II Site‐Directed Mutagenesis Kit (Stratagene) and subsequently verified by sequencing.
CHO‐K1 cells were maintained in DMEM/F12 growth medium containing 10% fetal bovine serum. Plasmids encoding the target genes (3600 ng) and enhanced green fluorescent protein (400 ng) were cotransfected into cells using Lipofectamine 2000 (Invitrogen) in accordance with the manufacturer's instructions. Cells were seeded onto poly‐d‐lysine (PDL)‐coated glass coverslips 1 h prior to electrophysiological recordings. […]
Whole‐cell patch‐clamp recordings were obtained either in transiently transfected CHO‐K1 cells or in primary cultured astrocytes at room temperature using standard patch‐clamp techniques with an Axopatch‐700B amplifier (Axon Instruments). […] Macroscopic currents generated by expressed potassium channels were recorded under the voltage‐clamp conditions with an internal pipette solution composed of (in mM): 140 KCl, 5 NaCl, 1 CaCl2, 1 MgCl2, 10 HEPES, and 10 EGTA, pH 7.2 adjusted with KOH. […] Astrocytic resting membrane potentials were recorded under current‐clamp conditions (I = 0 pA) using standard internal and external solutions, determined immediately after achieving whole‐cell mode.

For `c1ccc2c(c1)oc1ccc(Nc3ccnc(NCCCN4CCOCC4)n3)cc12` [JX3212, N^4-(dibenzo[b,d]furan-2-yl)-N^2-(3-morpholinopropyl)pyrimidine-2,4-diamine], the IC50 [1] was 13.7 ± 0.61 µM, the “OBX: percentage of distance traveled in the center (in words)” value (OBX C57BL/6J mice) was “increased percentage of distance traveled in the center” and the “OBX: total distance traveled (in words)” value (OBX C57BL/6J mice) was “did not affect the distance traveled”. The EC50 (5-HT2B receptor; agonistic effect) was greater than 60 µM, the activation at 60 µM (5-HT2B receptor; read-out: 5-HT2B agonistic effect, replicates, concentration 60 (presumably µM)) was 55.2% and the Emax (5-HT2B receptor; read-out: 5-HT2B max activation%) was 62.4%. The “Mutation: T162A inhibition, single recordings” value (Kir4.1 T162A) was 80.9735 and 73.6489 and 64.6435 and 83.1492 and 87.0339.
